Experimental data reported in paper PMC4376699, “Characterization of Binding and Inhibitory Properties of TAK-063, a Novel Phosphodiesterase 10A Inhibitor” (PLoS ONE, 2015).

How the values were obtained:
[1] = biological target: T1, Phosphodiesterase 10A (PDE10A) (Rattus norvegicus, UniProt Q9QYJ6); assay: [3H]TAK-063 saturation binding on rat brain sections (autoradiography); Kd […] NAc shell, […] CPu
T1 construct: native PDE10A in rat brain sections
T1 sequence (Q9QYJ6 1-794): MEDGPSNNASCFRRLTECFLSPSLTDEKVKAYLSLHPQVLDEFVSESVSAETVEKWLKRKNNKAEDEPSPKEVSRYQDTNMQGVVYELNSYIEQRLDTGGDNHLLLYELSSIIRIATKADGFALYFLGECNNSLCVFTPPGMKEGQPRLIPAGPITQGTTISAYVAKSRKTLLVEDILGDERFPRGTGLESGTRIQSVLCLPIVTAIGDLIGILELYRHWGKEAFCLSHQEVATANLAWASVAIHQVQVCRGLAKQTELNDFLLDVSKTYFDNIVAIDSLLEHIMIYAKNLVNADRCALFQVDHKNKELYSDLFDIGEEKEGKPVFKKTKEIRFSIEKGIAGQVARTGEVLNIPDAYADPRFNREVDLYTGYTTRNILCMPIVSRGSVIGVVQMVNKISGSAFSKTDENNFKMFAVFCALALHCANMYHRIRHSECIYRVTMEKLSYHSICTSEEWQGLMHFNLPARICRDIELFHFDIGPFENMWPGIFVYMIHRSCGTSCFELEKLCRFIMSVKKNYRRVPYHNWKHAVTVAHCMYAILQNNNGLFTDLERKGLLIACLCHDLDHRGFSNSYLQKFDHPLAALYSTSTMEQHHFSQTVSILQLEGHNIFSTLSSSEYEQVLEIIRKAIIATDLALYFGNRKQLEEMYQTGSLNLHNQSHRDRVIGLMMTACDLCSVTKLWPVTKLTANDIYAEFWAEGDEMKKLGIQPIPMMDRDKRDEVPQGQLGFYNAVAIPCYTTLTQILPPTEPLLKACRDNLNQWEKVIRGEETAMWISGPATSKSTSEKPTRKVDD

[2] = biological target: T2, Phosphodiesterase PDE10A1 (Homo sapiens, UniProt Q9Y233); assay: enzyme inhibition panel at […] (Ricerca Biosciences), […] inhibition; format: biochemical
T2 construct: gene PDE10A; PDE10A1
T2 sequence (Q9Y233 1-779 isoform Q9Y233-1): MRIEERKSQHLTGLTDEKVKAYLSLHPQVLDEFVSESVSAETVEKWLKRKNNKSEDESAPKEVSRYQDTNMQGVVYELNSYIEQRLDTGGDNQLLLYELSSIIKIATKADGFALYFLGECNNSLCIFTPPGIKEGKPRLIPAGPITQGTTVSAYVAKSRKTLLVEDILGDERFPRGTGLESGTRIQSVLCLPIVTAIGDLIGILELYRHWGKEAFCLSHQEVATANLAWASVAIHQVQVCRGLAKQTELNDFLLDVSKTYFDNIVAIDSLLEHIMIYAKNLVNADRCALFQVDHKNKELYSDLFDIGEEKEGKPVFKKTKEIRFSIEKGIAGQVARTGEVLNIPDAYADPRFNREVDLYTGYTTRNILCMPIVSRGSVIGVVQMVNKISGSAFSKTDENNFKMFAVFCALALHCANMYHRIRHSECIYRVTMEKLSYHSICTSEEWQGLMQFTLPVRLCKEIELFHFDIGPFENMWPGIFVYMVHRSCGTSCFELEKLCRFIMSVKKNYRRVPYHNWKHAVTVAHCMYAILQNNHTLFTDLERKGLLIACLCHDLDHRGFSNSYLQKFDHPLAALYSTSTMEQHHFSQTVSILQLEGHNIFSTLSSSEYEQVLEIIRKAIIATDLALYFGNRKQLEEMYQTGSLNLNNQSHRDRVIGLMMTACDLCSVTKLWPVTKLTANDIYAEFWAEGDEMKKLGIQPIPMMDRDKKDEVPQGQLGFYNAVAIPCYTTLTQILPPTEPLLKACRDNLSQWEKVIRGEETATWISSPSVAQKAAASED

## COc1cn(-c2ccc(-n3cccn3)cc2F)nc(-c2ccnn2-c2ccccc2)c1=O [TAK-063, 1-[2-fluoro-4-(1H-pyrazol-1-yl)phenyl]-5-methoxy-3-(1-phenyl-1H-pyrazol-5-yl)-pyridazin-4(1H)-one]
[1]
  Kd: 2.6 nM
[2]
  inhibition at 10 µM: 101%
